In ChEMBL document CHEMBL1697781, “Assessment of the health effects of chemicals in humans: II. Construction of an adverse effects database for QSAR modeling” (Curr Drug Discov Technol, 2004):

Assays:
Conditions in all cases: human; call rule not given here
[1] = system: Hepatotoxicity; assay: FDA HLAED, gamma-glutamyl transferase (GGT) increase
[2] = system: Hepatotoxicity; assay: FDA HLAED, alkaline phosphatase increase
[3] = system: Hepatotoxicity; assay: FDA HLAED, serum glutamic pyruvic transaminase (SGPT) increase
[4] = system: Hepatotoxicity; assay: FDA HLAED, liver enzyme composite activity
[5] = system: Hepatotoxicity; assay: FDA HLAED, lactate dehydrogenase (LDH) increase
[6] = system: Hepatotoxicity; assay: FDA HLAED, serum glutamic oxaloacetic transaminase (SGOT) increase
Wherever GGT Increase - Index Value is given: reference of the scale not given here.
Wherever LDH Increase - Index Value is given: reference of the scale not given here.

Compound	GGT Increase - Activity Score [1]	GGT Increase - Index Value [1]	GGT Increase - Number of Reports [1]	Alkaline Phosphatase Increase - Activity Score [2]	Alkaline Phosphatase Increase - Index Value [2]	Alkaline Phosphatase Increase - Number of Reports [2]	SGPT Increase - Activity Score [3]	SGPT Increase - Index Value [3]	SGPT Increase - Number of Reports [3]	Composite Activity - Active [4]	Composite Activity - Marginal [4]	Composite Activity - Score [4]	LDH Increase - Activity Score [5]	LDH Increase - Index Value [5]	LDH Increase - Number of Reports [5]	SGOT Increase - Activity Score [6]	SGOT Increase - Index Value [6]	SGOT Increase - Number of Reports [6]	further results
C[C@]12CC[C@@H]3c4ccc(OC(=O)Cc5ccc(N(CCCl)CCCl)cc5)cc4CC[C@H]3[C@@H]1CC[C@@H]2OC(=O)Cc1ccc(N(CCCl)CCCl)cc1 [ESTRADIOL MUSTARD]	Inactive	0	< 4	Inactive	0	< 4	Inactive	0	< 4	0	0	Inactive	Inactive	0	< 4	Inactive	0	< 4	–
CCCCCCCCCCC(=O)O[C@H]1CC[C@H]2[C@@H]3CCc4cc(O)ccc4[C@H]3CC[C@]12C [ESTRADIOL UNDECYLATE]	Inactive	0.3	< 4	Inactive	1.5	>= 4	Inactive	2.1	>= 4	0	0	Inactive	Inactive	1.2	>= 4	Inactive	2.8	>= 4	–
CCCCC(=O)O[C@H]1CC[C@H]2[C@@H]3CCc4cc(O)ccc4[C@H]3CC[C@]12C [ESTRADIOL VALERATE]	Inactive	0.3	< 4	Inactive	1.5	>= 4	Inactive	2.1	>= 4	0	0	Inactive	Inactive	1.2	>= 4	Inactive	2.8	>= 4	–
C[C@]12CC[C@@H]3c4ccc(O)cc4CC[C@H]3[C@@H]1CC[C@@H]2O [ESTRADIOL]	Inactive	0.3	< 4	Inactive	1.5	>= 4	Inactive	2.1	>= 4	0	0	Inactive	Inactive	1.2	>= 4	Inactive	2.8	>= 4	–
C[C@]12CC[C@@H]3c4ccc(OC(=O)N(CCCl)CCCl)cc4CC[C@H]3[C@@H]1CC[C@@H]2O [ESTRAMUSTINE]	Inactive	0	< 4	Active	43.7	< 4	Inactive	0	< 4	1	0	Inactive	Inactive	0	< 4	Inactive	0	< 4	–
CCc1cccc2c3c([nH]c12)C(CC)(CC(=O)O)OCC3 (configuration not stated) [ETODOLAC]	Inactive	0.8	>= 4	Inactive	0.8	>= 4	Inactive	1.4	>= 4	0	0	Inactive	Inactive	0.6	>= 4	Inactive	1.1	>= 4	–
CCOC(=O)c1cncn1[C@H](C)c1ccccc1 [ETOMIDATE]	Inactive	0	< 4	Inactive	0	< 4	Inactive	0	< 4	0	0	Inactive	Inactive	0	< 4	Inactive	0	< 4	–
COc1cc([C@@H]2c3cc4c(cc3[C@@H](O[C@@H]3O[C@@H]5CO[C@@H](C)O[C@H]5[C@H](O)[C@H]3O)[C@H]3COC(=O)[C@H]23)OCO4)cc(OC)c1O [ETOPOSIDE]	Inactive	0	< 4	Inactive	0.8	< 4	Inactive	0	< 4	–	–	–	Inactive	0.4	< 4	Inactive	0.4	< 4	Composite Activity - Active ([4]; Liver): 0; Composite Activity - Marginal ([4]; Liver): 0; Composite Activity - Score ([4]; Liver): Inactive
CCOC(=O)/C=C(C)/C=C/C=C(C)/C=C/c1c(C)cc(OC)c(C)c1C [ETRETINATE]	Inactive	0.6	< 4	Active	5.3	>= 4	Marginally Active	3.2	>= 4	2	1	Active	Inactive	2.9	>= 4	Active	5.3	>= 4	–
